Results as given in US20070128217A1 (priority 2003, published 2007).

Experiments:
[1] = test system: antibodies in sera from SARS patients (sera 1a, 1b, 2, 6, 37, 62, London, SARS-yellow, SARS-green); assay type: binding, human; set-up: Binding of serum 6 to linear peptides of protein X1 of SARS-CoV Urbani / Binding of serum 37 to linear peptides of protein X1 of SARS-CoV Urbani / Binding of serum 6 to looped/cyclic peptide (PEPSCAN-ELISA) / Binding of serum 37 to looped/cyclic peptide (PEPSCAN-ELISA) / Binding of serum 37 to looped/cyclic peptides of protein X1 of SARS-CoV Urbani / Binding of serum 6 to linear peptides of protein X2 / Binding of serum 37 to linear peptides of protein X2 / Binding of serum 37 to looped/cyclic peptides of protein X2 of SARS-CoV Urbani / Binding of serum 6 to linear peptides of protein M of SARS-CoV Urbani / Binding of serum 37 to linear peptides of protein M of SARS-CoV Urbani / Binding of serum 6 to looped/cyclic peptides of protein M of SARS-CoV Urbani / Binding of serum 37 to looped/cyclic peptides of protein M of SARS-CoV Urbani / Binding of serum 6 to linear peptides of protein X3 of SARS-CoV Urbani / Binding of serum 37 to linear peptides of protein X3 of SARS-CoV Urbani / Binding of serum 37 to looped/cyclic peptides of protein X3 of SARS-CoV Urbani / Binding of serum 6 to linear peptides of protein X4 of SARS-CoV Urbani / Binding of serum 37 to linear peptides of protein X4 of SARS-CoV Urbani / Binding of serum 37 to looped/cyclic peptides of protein X4 of SARS-CoV Urbani / Binding of serum 6 to linear peptides of protein X5 of SARS-CoV Urbani / Binding of serum 37 to linear peptides of protein X5 of SARS-CoV Urbani / Binding of serum 37 to looped/cyclic peptides of protein X5 of SARS-CoV Urbani / Binding of serum 6 to linear peptides of protein N of SARS-CoV Urbani / Binding of serum 37 to linear peptides of protein N of SARS-CoV Urbani / Binding of serum 6 to linear peptide (PEPSCAN-ELISA) / Binding of serum 1a to looped/cyclic peptides of protein N of SARS-CoV Urbani / Binding of serum 1b to looped/cyclic peptides of protein N of SARS-CoV Urbani / Binding of serum 2 to looped/cyclic peptides of protein N of SARS-CoV Urbani / Binding of serum 6 to looped/cyclic peptides of protein N of SARS-CoV Urbani / Binding of serum 37 to looped/cyclic peptides of protein N of SARS-CoV Urbani / Binding of serum 62 to looped/cyclic peptides of protein N of SARS-CoV Urbani / Binding of serum London to looped/cyclic peptides of protein N of SARS-CoV Urbani / Binding of serum SARS-green to looped/cyclic peptides of protein N of SARS-CoV Urbani: unit not given here
[2] = test system: control sera (pooled serum of ten healthy LUMC hospital workers; commercial negative donor pooled serum from the Dutch bloodbank); assay type: binding, human; set-up: Binding of Control serum LUMC to linear peptides / Binding of Control serum Blood-bank to linear peptides / Binding of Control serum LUMC to looped peptides / Binding of Control Serum Blood-Bank to Looped peptides / Binding of Control serum LUMC to linear peptides of the protein M of SARS-CoV Urbani / Binding of Control serum Blood-bank to linear peptides of the protein M of SARS-CoV Urbani / Binding of Control serum LUMC to looped peptides of the protein M of SARS-CoV Urbani / Binding of Control Serum Blood-Bank to Looped peptides of the protein M of SARS-CoV Urbani: unit not given here
[3] = test system: rabbit serum obtained by immunizing a rabbit with the SARS-CoV strain Frankfurt 1; assay type: binding; set-up: Binding of a rabbit serum to linear peptides / Binding of a rabbit serum to looped peptides / Rabbit serum linear peptides / Rabbit serum looped peptides / Binding of a rabbit serum to linear peptides of protein N of SARS-CoV Urbani (Rabbit serum linear peptides) / Binding of a rabbit serum to looped/cyclic peptides of protein N of SARS-CoV Urbani (Rabbit serum looped peptides): unit not given here

HTYQLRARSVSPKLF was tested, and the “Binding of serum 1a to linear peptides of protein X4 of SARS-CoV Urbani” value [1] was 0.7, the “Binding of serum 1a to looped/cyclic peptides of protein X4 of SARS-CoV Urbani” value [1] was 0.8 and the “Binding of serum 1b to linear peptides of protein X4 of SARS-CoV Urbani” value [1] was 0.8. The “Binding of serum 1b to looped/cyclic peptides of protein X4 of SARS-CoV Urbani” value [1] was 0.5, the “Binding of serum 2 to linear peptides of protein X4 of SARS-CoV Urbani” value [1] was 0.6 and the “Binding of serum 2 to looped/cyclic peptides of protein X4 of SARS-CoV Urbani” value [1] was 0.8. For the same sequence, the “Binding of serum 6 to linear peptides of protein X4 of SARS-CoV Urbani” value [1] was 1.0, the “Binding of serum 6 to looped/cyclic peptides of protein X4 of SARS-CoV Urbani” value [1] was 0.8 and the “Binding of serum 37 to linear peptides of protein X4 of SARS-CoV Urbani” value [1] was 1.0. For the same sequence, the “Binding of serum 37 to looped/cyclic peptides of protein X4 of SARS-CoV Urbani” value [1] was 0.6, the “Binding of serum 62 to linear peptides of protein X4 of SARS-CoV Urbani” value [1] was 0.9 and the “Binding of serum 62 to looped/cyclic peptides of protein X4 of SARS-CoV Urbani” value [1] was 0.6. For the same sequence, the “Binding of serum London to linear peptides of protein X4 of SARS-CoV Urbani” value [1] was 0.8, the “Binding of serum London to looped/cyclic peptides of protein X4 of SARS-CoV Urbani” value [1] was 0.3 and the “Binding of serum SARS-green to linear peptides of protein X4 of SARS-CoV Urbani” value [1] was 0.7. The “Binding of serum SARS-green to looped/cyclic peptides of protein X4 of SARS-CoV Urbani” value [1] was 0.4, the “Binding of serum SARS-yellow to linear peptides of protein X4 of SARS-CoV Urbani” value [1] was 0.5 and the “Binding of serum SARS-yellow to looped/cyclic peptides of protein X4 of SARS-CoV Urbani” value [1] was 0.8. The “Binding of Control Serum Blood-Bank to Looped peptides” value [2] was 0.8, the “Binding of Control serum Blood-bank to linear peptides” value [2] was 1.0 and the “Binding of Control serum LUMC to linear peptides” value [2] was 0.9. For the same sequence, the “Binding of Control serum LUMC to looped peptides” value [2] was 0.7 and the “Recognition of the peptide by the rabbit serum” value [3] was “recognized”.

For ESELVIGAVIIRGHL, the “Binding of serum 1a to linear peptides of protein M of SARS-CoV Urbani” value [1] was 0.8, the “Binding of serum 1a to looped/cyclic peptides of protein M of SARS-CoV Urbani” value [1] was 0.6 and the “Binding of serum 1b to linear peptides of protein M of SARS-CoV Urbani” value [1] was 0.6. The “Binding of serum 1b to looped/cyclic peptides of protein M of SARS-CoV Urbani” value [1] was 0.5, the “Binding of serum 2 to linear peptides of protein M of SARS-CoV Urbani” value [1] was 0.8 and the “Binding of serum 2 to looped/cyclic peptides of protein M of SARS-CoV Urbani” value [1] was 0.6. For the same sequence, the “Binding of serum 6 to linear peptides of protein M of SARS-CoV Urbani” value [1] was 0.3, the “Binding of serum 6 to looped/cyclic peptides of protein M of SARS-CoV Urbani” value [1] was 0.5 and the “Binding of serum 37 to linear peptides of protein M of SARS-CoV Urbani” value [1] was 0.9. For the same sequence, the “Binding of serum 37 to looped/cyclic peptides of protein M of SARS-CoV Urbani” value [1] was 0.5, the “Binding of serum 62 to linear peptides of protein M of SARS-CoV Urbani” value [1] was 0.8 and the “Binding of serum 62 to looped/cyclic peptides of protein M of SARS-CoV Urbani” value [1] was 0.5. For the same sequence, the “Binding of serum London to linear peptides of protein M of SARS-CoV Urbani” value [1] was 0.3, the “Binding of serum London to looped/cyclic peptides of protein M of SARS-CoV Urbani” value [1] was 0.2 and the “Binding of serum SARS-green to linear peptides of protein M of SARS-CoV Urbani” value [1] was 0.3. The “Binding of serum SARS-green to looped/cyclic peptides of protein M of SARS-CoV Urbani” value [1] was 0.2, the “Binding of serum SARS-yellow to linear peptides of protein M of SARS-CoV Urbani” value [1] was 0.1 and the “Binding of serum SARS-yellow to looped/cyclic peptides of protein M of SARS-CoV Urbani” value [1] was 0.4. For the same sequence, the “Binding of Control Serum Blood-Bank to Looped peptides of the protein M of SARS-CoV Urbani” value [2] was 0.7, the “Binding of Control serum Blood-bank to linear peptides of the protein M of SARS-CoV Urbani” value [2] was 0.6 and the “Binding of Control serum LUMC to linear peptides of the protein M of SARS-CoV Urbani” value [2] was 0.4. For the same sequence, the “Binding of Control serum LUMC to looped peptides of the protein M of SARS-CoV Urbani” value [2] was 0.5, the “Rabbit serum linear peptides” value [3] was 0.4 and the “Rabbit serum looped peptides” value [3] was 0.1.

For SGFAAYNRYRIGNYK, the “Binding of serum 1a to linear peptides of protein M of SARS-CoV Urbani” value [1] was 0.8, the “Binding of serum 1a to looped/cyclic peptides of protein M of SARS-CoV Urbani” value [1] was 0.9 and the “Binding of serum 1b to linear peptides of protein M of SARS-CoV Urbani” value [1] was 0.4. The “Binding of serum 1b to looped/cyclic peptides of protein M of SARS-CoV Urbani” value [1] was 0.6, the “Binding of serum 2 to linear peptides of protein M of SARS-CoV Urbani” value [1] was 0.6 and the “Binding of serum 2 to looped/cyclic peptides of protein M of SARS-CoV Urbani” value [1] was 0.9. The “Binding of serum 6 to linear peptides of protein M of SARS-CoV Urbani” value [1] was 0.8, the “Binding of serum 6 to looped/cyclic peptides of protein M of SARS-CoV Urbani” value [1] was 1.4 and the “Binding of serum 37 to linear peptides of protein M of SARS-CoV Urbani” value [1] was 0.7. For the same sequence, the “Binding of serum 37 to looped/cyclic peptides of protein M of SARS-CoV Urbani” value [1] was 0.7, the “Binding of serum 62 to linear peptides of protein M of SARS-CoV Urbani” value [1] was 0.8 and the “Binding of serum 62 to looped/cyclic peptides of protein M of SARS-CoV Urbani” value [1] was 0.7. The “Binding of serum London to linear peptides of protein M of SARS-CoV Urbani” value [1] was 0.4, the “Binding of serum London to looped/cyclic peptides of protein M of SARS-CoV Urbani” value [1] was 0.3 and the “Binding of serum SARS-green to linear peptides of protein M of SARS-CoV Urbani” value [1] was 0.3. The “Binding of serum SARS-green to looped/cyclic peptides of protein M of SARS-CoV Urbani” value [1] was 0.2, the “Binding of serum SARS-yellow to linear peptides of protein M of SARS-CoV Urbani” value [1] was 0.0 and the “Binding of serum SARS-yellow to looped/cyclic peptides of protein M of SARS-CoV Urbani” value [1] was 0.7. For the same sequence, the “Binding of Control Serum Blood-Bank to Looped peptides of the protein M of SARS-CoV Urbani” value [2] was 0.7, the “Binding of Control serum Blood-bank to linear peptides of the protein M of SARS-CoV Urbani” value [2] was 0.6 and the “Binding of Control serum LUMC to linear peptides of the protein M of SARS-CoV Urbani” value [2] was 0.4. The “Binding of Control serum LUMC to looped peptides of the protein M of SARS-CoV Urbani” value [2] was 0.8, the “Rabbit serum linear peptides” value [3] was 1.2 and the “Rabbit serum looped peptides” value [3] was 1.6.
